Reference: patent publication US8273743B2, “Quinoxaline inhibitors of the hedgehog signalling” (Curis, Inc., priority 2004, dated 2012)

What follows are compounds tested on hedgehog pathway signaling (10T1/2-GliLuc [s12] or HEPM-GliLuc [MZ24] Gli reporter cell lines) (assay: Hedgehog signalling inhibition assay (Gli-luciferase reporter gene assay)). Settings: average IC50; either mouse [s12] or human [MZ24] Gli reporter cell lines; with Sonic hedgehog-octyl conjugate, 24 hrs.
Type: cell-based
Description: Mouse Reporter Cell lines—10T1/2-GliLuc [s12] cells (derived from cell line C3H10T1/2 ATCC #CCL-226); Mouse Embryonic Fibroblasts); Growth Medium: Dulbecco's modified Eagles' Medium (DMEM) supplemented with 10% Fetal Bovine Serum (FBS), 10 units/mL penicillin, 100 ug/mL streptomycin, 2 mM glutamine, and 10 mM HEPES.
Human Reporter Cell lines—HEPM-GliLuc [MZ24]—cells (derived from HEPM, Human Embryonic Palatal Mesenchyme ATCC #CRL-1486); Growth Medium: Minimum Essential Medium (MEM; with Earle's salts) supplemented with 10-20% Fetal Bovine Serium (FBS), 10 units/mL penicillin, 100 ug/mL streptomycin, 2 mM glutamine, and 10 mM HEPES pH 7.2.
Sonic hedgehog—recombinant human SHh N-terminal octylated conjugate.
Microtiter Plates (MTPs)—For the Luciferase assay cells are plated in 96-well MTPs (White, Flat-bottom, Clear-View).
Luciferase-Assay Medium—DMEM supplemented with 0.5% FBS, 10 units/mL penicillin, 100 ug/mL streptomycin, 2 mM glutamine, and 10 mM HEPES pH 7.2.
PBS/Ca/Mg Mix—Phosphate Buffered Saline (PBS) supplemented with 0.5 mM CaCl2 and 1 mM MgCl2.
S12 and MZ24 cells genetically modified to contain a luciferase reporter gene driven by the hedgehog-responsive Gli promoter were maintained on tissue culture dishes in Growth Medium at 37° C. and 5% CO2. Cell cultures were passaged at sub-confluency at every 3-4 days. (1:20 to 1:40 for s12; 1:3 to 1:10 for MZ24). Cells were harvested and diluted in Growth Medium such that they could be plated in a microtitre plate at 10,000-20,000 cells (s12), or 20,000-30,000 cells (MZ24), per 100 ul, per well. Cells were further incubated for ˜24-48 hours at 37° C. and 5% CO2.
After ˜24-48 hour incubation the Growth Medium in the microtitre plates was replaced by Luciferase-Assay Medium (100 ul per well), with and without Sonic hedgehog-octyl conjugate, at 0.1-0.3 ug/ml (S12) or 0.5-1.0 ug/ml (MZ24), and test compounds. Cells were then further incubated for and additional 24 hrs.
Microtitre plates were then subjected to the luciferase reporter gene assay kit (LucLite™), with modifications to the manufacturer's procedure wherein medium was removed and the substrate was reconstituted with 1:1 PBS/Ca/Mg:lysis buffer instead of straight lysis buffer. In brief, the PBS/Ca/Mg was mixed 1:1 with lysis buffer and 10 mL were added to each substrate vial (of the 1000-assay kit). Then the assay media from the microtitre plate was discarded, and 100 ul of this substrate mix was added to each well. Plates were incubated at room temperature for 20-30 minutes and then the Relative Light Units (RLUS) representing the relative expression level of the luciferase reporter gene were determined with a Topcount reader (Packard) or an Analyst reader (Molecular Devices).
The following table 1 represents the average IC50 values for particular compounds tested according to the procedures above using either mouse [s12] or human [MZ24] Gli reporter cell lines indicating inhibition of hedgehog pathway signaling.

IC50, < 1000 nM:
O=C(Nc1ccc(Cl)c(-c2cnc3ccccc3n2)c1)c1cccnc1F [compound 6]
Cc1ccsc1C(=O)Nc1ccc(Cl)c(-c2cnc3ccccc3n2)c1 [compound 7]
O=C(Nc1ccc(Cl)c(-c2cnc3ccccc3n2)c1)c1ccc(Cl)nc1Cl [compound 15]
CS(=O)(=O)c1ccc(C(=O)Nc2ccc(Cl)c(-c3cnc4ccccc4n3)c2)cc1 [compound 18]
O=C(Nc1ccc(Cl)c(-c2cnc3ccccc3n2)c1)c1ccc2cc[nH]c2c1 [compound 19]
CS(=O)(=O)c1cccc(C(=O)Nc2ccc(Cl)c(-c3cnc4ccccc4n3)c2)c1 [compound 24]
O=C(Nc1ccc(Cl)c(-c2cnc3ccccc3n2)c1)C1CC1 [compound 27]
Cc1cc(C(=O)Nc2ccc(Cl)c(-c3cnc4ccccc4n3)c2)c(C(F)(F)F)o1 [compound 31]
O=C(Nc1ccc(Cl)c(-c2cnc3ccccc3n2)c1)c1cccc(Cl)c1 [compound 33]
O=C(Nc1ccc(Cl)c(-c2cnc3ccccc3n2)c1)c1ccc(Cl)cc1 [compound 34]
O=C(Nc1ccc(Cl)c(-c2cnc3ccccc3n2)c1)c1cccnc1 [compound 35]
O=C(Nc1ccc(Cl)c(-c2cnc3ccccc3n2)c1)c1ccc(Cl)nc1 [compound 36]
O=C(Nc1ccc(Cl)c(-c2cnc3ccccc3n2)c1)c1cccnc1Cl [compound 37]
O=C(Nc1ccc(Cl)c(-c2cnc3ccccc3n2)c1)c1cccs1 [compound 38]
Cc1nc(C(F)(F)F)ccc1C(=O)Nc1ccc(Cl)c(-c2cnc3c(F)cc(F)cc3n2)c1 [compound 39]
Cc1nc(C(F)(F)F)ccc1C(=O)Nc1ccc(Cl)c(-c2cnc3c(F)c(F)ccc3n2)c1 [compound 40]
Cc1nc(C(F)(F)F)ccc1C(=O)Nc1ccc(Cl)c(-c2cnc3cc(F)c(F)cc3n2)c1 [compound 41]
Cc1cc2ncc(-c3cc(NC(=O)c4ccc(C(F)(F)F)nc4C)ccc3Cl)nc2cc1C [compound 42]
Cc1nc(C(F)(F)F)ccc1C(=O)Nc1ccc(Cl)c(-c2cnc3cc(F)ccc3n2)c1 [compound 43]
O=C(Nc1ccc(Cl)c(-c2cnc3ccccc3n2)c1)c1cccc2c1OCCO2 [compound 44]
Cc1ccc2ncc(-c3cc(NC(=O)c4ccc(C(F)(F)F)nc4C)ccc3Cl)nc2c1C [compound 45]
COc1cc(OC)cc(C(=O)Nc2ccc(Cl)c(-c3cnc4c(C)cccc4n3)c2)c1 [compound 46]
Cc1nc(C(F)(F)F)ccc1C(=O)Nc1ccc(Cl)c(-c2cnc3c(C)cccc3n2)c1 [compound 47]
Cc1cc(C)c2nc(-c3cc(NC(=O)c4ccc(C(F)(F)F)nc4C)ccc3Cl)cnc2c1 [compound 48]
COc1cc(OC)cc(C(=O)Nc2ccc(Cl)c(-c3cnc4ccc(C)c(C)c4n3)c2)c1 [compound 54]
Cc1nc(C(F)(F)F)ccc1C(=O)Nc1ccc(Cl)c(-c2cnc3cccnc3n2)c1 [compound 55]
CC(C)CC(=O)Nc1ccc(Cl)c(-c2cnc3ccccc3n2)c1 [compound 56]
